{
  "source": "patent US20100129805A1",
  "about": "“SLC1A1 ANTIPSYCHOTIC DRUG RESPONSE MARKERS” (priority 2006, published 2010)",
  "test_system": "patients with DSM-III-R or DSM-IV diagnoses of SCZ refractory or intolerant to conventional antipsychotics",
  "assay": "Clozapine response after 6 months treatment (% score change on BPRS, BPOS, BNEG) by SLC1A1 genotype/haplotype",
  "type": "in vivo, human",
  "conditions": "6 months clozapine",
  "text": "Effect of 5 Single Nucleotide Polymorphisms (SNPs) Across the SLC1A1 Gene on Clozapine (CZ) Response After 6 Months Treatment in Two Distinct Schizophrenic Populations (Caucasian and African-American) Refractory or Intolerant to Conventional Antipsychotics.\n97 patients (73 Caucasians and 24 African-Americans) with DSM-III-R or DSM-IV diagnoses of SCZ assessed from Case Western Reserve University, Cleveland, Ohio.\nNo significant differences were observed between Caucasians and African-Americans in terms of gender ratio (P=0.234) or mean age (P=0.561). Almost all subjects met criteria for treatment refractoriness or intolerance to typical antipsychotic therapy as defined by Kane et al (1988). Patients underwent a washout period of 2 to 4 weeks during which, unless clinically necessary, they received no medications before starting clozapine (CZ). CZ treatment was continued for a minimum of 6 months during which patients were evaluated prospectively. CZ blood levels were monitored throughout course of treatment to ascertain compliance,\nTreatment response is evaluated as a percentage (%) score change from baseline using the 18-item Brief Psychiatric Rating Scale (BPRS), a 4-item positive symptom subscale (BPOS) and 3-item negative symptom subscale (BNEG)—after 6 months of clozapine treatment. % score change=(6 months score−baseline score)/Baseline score. A negative value of % score change in each scale would indicate an improvement in symptoms measured by that particular scale.\nBlood samples were collected from clinical sites and sent to the Centre for Addiction and Mental Health (CAMH) in Toronto, ON, Canada—where genotyping of patients' DNA was performed by 5′-exonuclease fluorescence assays. The 5 informative SNPs (minor allele frequency>20%) spanning SLC1A1 were chosen based on location (see Table 1)—with 2 in coding regions and 3 from different intronic regions and different haplotype blocks. Laboratory staff was blind to the psychiatric ratings.\nWithin each ethnic population, individual SNP analyses of % score changes (continuous data) were performed using Analysis of Variance (ANOVA) in STATA ver7.0. Haplotype analysis of unphased quantitative data was performed using QTPHASE (Dudbridge, 2003).",
  "data": [
    {"smiles": "CN1CCN(C2=Nc3cc(Cl)ccc3Nc3ccccc32)CC1", "note": "[clozapine]", "values": [
      {"measurement": "Mean BPOS % score change", "setting": "haplotype 1-1-1 in SNP window 1-2-3, Caucasians and African-Americans combined", "result": "−0.198"},
      {"measurement": "Mean BNEG % score change", "setting": "haplotype 1-1 in SNP window 4-5, African-Americans", "result": "−0.379"},
      {"measurement": "Mean BNEG % score change", "setting": "haplotype 1-2-1 in SNP window 3-4-5, African-Americans", "result": 0.086},
      {"measurement": "Mean BNEG % score change", "setting": "haplotype 1-2 in SNP window 3-4, African-Americans", "result": 0.143},
      {"measurement": "Mean BNEG % score change", "setting": "haplotype 2-1-1 in SNP window 2-3-4, Caucasians", "result": 0.295},
      {"measurement": "Mean BNEG % score change", "setting": "haplotype 2-1-1 in SNP window 3-4-5, African-Americans", "result": "−0.379"},
      {"measurement": "Mean BNEG % score change", "setting": "haplotype 2-1 in SNP window 3-4, African-Americans", "result": "−0.341"},
      {"measurement": "Mean BNEG % score change", "setting": "haplotype 2-1 in SNP window 4-5, African-Americans", "result": 0.107},
      {"measurement": "Mean BNEG % score change", "setting": "haplotype 2-2-1 in SNP window 1-2-3, Caucasians and African-Americans combined", "result": 0.592},
      {"measurement": "Mean BNEG % score change", "setting": "haplotype 2-2-1 in SNP window 1-2-3, Caucasians", "result": 0.889},
      {"measurement": "Mean BNEG % score change", "setting": "rs301434 genotype C/C, Caucasians & African-Americans combined", "result": "−0.115"},
      {"measurement": "Mean BPRS % score change", "setting": "rs301434 genotype C/C, Caucasians, negative = improvement", "result": "−0.248"},
      {"measurement": "Mean BNEG % score change", "setting": "rs301434 genotype T/C, Caucasians & African-Americans combined", "result": "−0.136"},
      {"measurement": "Mean BPRS % score change", "setting": "rs301434 genotype T/C, Caucasians, negative = improvement", "result": "−0.310"},
      {"measurement": "Mean BNEG % score change", "setting": "rs301434 genotype T/T, Caucasians & African-Americans combined", "result": 0.636},
      {"measurement": "Mean BPRS % score change", "setting": "rs301434 genotype T/T, Caucasians, negative = improvement", "result": 1.310},
      {"measurement": "Mean BNEG % score change", "setting": "rs1980943 genotype A/A, African-Americans, negative = improvement", "result": 3.000},
      {"measurement": "Mean BNEG % score change", "setting": "rs1980943 genotype G/A, African-Americans, negative = improvement", "result": "−0.378"},
      {"measurement": "Mean BNEG % score change", "setting": "rs1980943 genotype G/G, African-Americans, (6 months score-baseline score)/baseline score, negative = improvement", "result": 0.067}
    ]}
  ]
}
